Measured values reported in article PMC2628638, “Catalytic inhibition of topoisomerase II by a novel rationally designed ATP-competitive purine analogue” (BMC Chemical Biology, 2009).

Tests used:
[1] = test system: HCC1937 BRCA1 mutant and HCC1937 BRCA1 reconstituted cells; assay: Clonogenic growth assay (WST-1, colony counting); assay type: cell-based; conditions: continuous treatment for 9 days, WST-1 and colony numbers
Method: HCC1937 BRCA1 mutant and HCC1937 BRCA1 reconstituted breast ductal carcinoma cells were cultured in RPMI-1640 medium supplemented with 10% fetal calf serum, 2 mM L-glutamine, 1 mM sodium pyruvate, 4.5 g/l glucose and 1% (v/v) penicillin/streptomycin. Status of BRCA1 was corroborated by immunoprecipitation using 50 μg nuclear extracts and 1 μg mouse monoclonal antibody MS110 (ab16780, Abcam Inc., Cambridge, MA), which is directed towards the amino-terminus of the protein. Blots were probed with BRCA1 carboxy-terminal specific mouse monoclonal antibody D9 (sc-6954, Santa Cruz Biotechnologies, Santa Cruz, CA) and, following stripping, re-probed with antibody MS110. For assays, 5000 cells in 3 ml medium were seeded per well of 6 well plates in duplicates. The day after, vehicle (DMSO) or compounds were added. After one week medium was exchanged and vehicle or compounds were re-added for an additional two days. To assess proliferation the medium in each well was replaced with 1 ml medium containing 100 μl WST-1 reagent and incubation for 20 minutes at 37°C. Of each sample 110 μl supernatant were transferred into a 96 well plate and the OD was read at 450 nm (filter at 630 nm) on a SpectraMax Plus microtiter plate reader using SoftMax Pro software (Molecular Devices). For background correction, the blank value consisted of 100 μl medium containing 10 μl WST-1. Thereafter, colonies were stained by removing medium, washing cells once with PBS and incubation with 1 ml crystal violet solution for 30 minutes at room temperature. Cells were washed twice with PBS and colonies were counted using an Artec Counter (Model 880, Artec, Dyntatech Laboratories Inc.) with diameter cut-off set to 0.2 mm. Data were expressed as growth or colony numbers relative to vehicle control treatments (100%).

[2] = target: T1, topoisomerase II beta (Homo sapiens, UniProt Q02880); assay: Affinity precipitation with biotinylated purine analogue 2 from HL-60 nuclear extracts; assay type: binding; conditions: for competition of the interaction of biotinylated purine analogue 2 with topoisomerase II beta: 1 μM biotinylated analogue 2, competitor in excess (10 μM), QAP 1 also at equimolar concentration
T1 construct: endogenous in cells; host or cells: HL-60 nuclear extract
T1 sequence (Q02880 whole entry): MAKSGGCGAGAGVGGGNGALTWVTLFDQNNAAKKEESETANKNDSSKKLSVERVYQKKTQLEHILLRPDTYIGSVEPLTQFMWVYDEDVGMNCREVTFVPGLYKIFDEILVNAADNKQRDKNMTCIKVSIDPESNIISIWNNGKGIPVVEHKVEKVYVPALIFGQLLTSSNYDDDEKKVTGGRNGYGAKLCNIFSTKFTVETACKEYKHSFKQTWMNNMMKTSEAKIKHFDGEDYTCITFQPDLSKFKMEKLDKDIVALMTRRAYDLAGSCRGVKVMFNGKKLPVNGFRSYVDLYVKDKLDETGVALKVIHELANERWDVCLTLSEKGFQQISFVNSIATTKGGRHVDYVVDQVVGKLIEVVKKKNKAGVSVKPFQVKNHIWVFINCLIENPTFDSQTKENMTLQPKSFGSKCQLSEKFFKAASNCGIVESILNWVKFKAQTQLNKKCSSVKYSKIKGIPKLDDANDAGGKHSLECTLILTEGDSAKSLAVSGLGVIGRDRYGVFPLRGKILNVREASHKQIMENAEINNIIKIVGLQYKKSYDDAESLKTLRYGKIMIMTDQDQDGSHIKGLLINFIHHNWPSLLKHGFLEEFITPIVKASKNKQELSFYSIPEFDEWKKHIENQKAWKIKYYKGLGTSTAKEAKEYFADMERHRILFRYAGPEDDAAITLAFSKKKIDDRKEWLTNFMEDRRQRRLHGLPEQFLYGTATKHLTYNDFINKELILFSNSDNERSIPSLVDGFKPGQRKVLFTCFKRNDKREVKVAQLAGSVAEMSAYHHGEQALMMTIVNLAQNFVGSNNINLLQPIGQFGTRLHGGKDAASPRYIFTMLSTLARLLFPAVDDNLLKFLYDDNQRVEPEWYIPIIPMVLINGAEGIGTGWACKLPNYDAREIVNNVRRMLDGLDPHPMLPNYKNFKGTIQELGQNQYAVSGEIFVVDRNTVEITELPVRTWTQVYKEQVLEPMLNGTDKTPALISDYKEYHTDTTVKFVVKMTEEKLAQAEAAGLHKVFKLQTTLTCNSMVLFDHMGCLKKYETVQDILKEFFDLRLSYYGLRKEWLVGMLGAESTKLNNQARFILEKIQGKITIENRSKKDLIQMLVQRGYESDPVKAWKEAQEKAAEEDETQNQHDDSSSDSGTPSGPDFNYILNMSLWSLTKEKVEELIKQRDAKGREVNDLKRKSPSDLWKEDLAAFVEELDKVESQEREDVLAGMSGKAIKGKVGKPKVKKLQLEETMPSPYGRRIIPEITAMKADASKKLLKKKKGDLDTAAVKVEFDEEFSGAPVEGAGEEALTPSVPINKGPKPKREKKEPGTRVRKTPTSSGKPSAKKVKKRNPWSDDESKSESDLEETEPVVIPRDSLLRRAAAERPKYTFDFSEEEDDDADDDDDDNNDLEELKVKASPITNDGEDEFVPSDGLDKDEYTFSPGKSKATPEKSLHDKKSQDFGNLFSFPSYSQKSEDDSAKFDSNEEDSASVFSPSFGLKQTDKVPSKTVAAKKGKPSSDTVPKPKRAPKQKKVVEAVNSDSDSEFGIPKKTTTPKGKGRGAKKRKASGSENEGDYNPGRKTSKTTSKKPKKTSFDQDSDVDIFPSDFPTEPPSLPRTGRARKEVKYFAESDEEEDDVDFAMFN
Method: (§1) Topoisomerase II α and β were affinity precipitated with biotinylated inhibitor as follows. Exponentially growing HL-60 cells were collected on ice and incubated with hypotonic buffer (10 mM HEPES pH 7.5, 1.5 mM MgCl2, 10 mM KCl, 0.5 mM DTT, 0.5 mM PMSF, 1× protease inhibitor cocktail (Complete Mini, Roche Diagnostics GmbH)) for 15 minutes, then 0.6% v/v NP-40 was added and cells were disrupted using a Dounce homogenizer. Lysates were transferred to 1.5 ml Protein LoBind Eppendorf tubes and nuclei were collected after centrifugation at 8000 rpm for 10 minutes and washed twice with hypotonic buffer. To extract and release chromatin associated topoisomerase II nuclei were incubated for 30 minutes in DNAse buffer (20 mM Tris HCl pH 7.5, 5 mM MgCl2, 1 mM CaCl2, 25 mM NaCl, 0.5 mM EDTA, 1% NP-40, 1 mM DTT, 1 × protease inhibitor cocktail, 0.1 mM PMSF) containing 40 U DNAse I (Roche Diagnostics GmbH) followed by addition of twice concentrated nuclear extraction buffer (20 mM HEPES pH 7.5, 3 mM MgCl2, 20 mM KCl, 50 mM β-glycerophosphate, 840 mM NaCl, 1 mM EDTA, 50 mM PNPP, 1 mM DTT, 1 mM PMSF) and rotation for 1 h in the coldroom. The soluble fraction was obtained following centrifugation at 13000 rpm for 15 minutes. 25 μg nuclear extract were used for the affinity precipitation. The salt concentration was adjusted to 150 mM with nuclear extraction buffer (without NaCl) and the sample volume was toped off to 200 μl with precipitation buffer (50 mM HEPES pH 7.4, 150 mM NaCl, 25 mM β-glycerophosphate, 25 mM NaF, 5 mM EGTA, 1 mM EDTA, 15 mM PPI, 1 mM PMSF). Compounds were preincubated for 30 minutes prior addition of biotinylated purine analogue 2 for 2 h. Streptavidin agarose beads (Novagen, 69203) were washed twice with PBS, blocked for 30 minutes with PBS containing 1% BSA, washed twice with PBS and finally with precipitation buffer. 40 μl equilibrated streptavidin agarose beads were added to the sample and incubation was continued for 1 h. Beads were pelleted by centrifugation at 7000 rpm for 5 minutes and washed thrice with precipitation buffer. During the last wash the beads were transferred to a new tube and the bound fraction was released by boiling for 5 minutes in Laemmli sample buffer. Topoisomerase II α and β were detected by Western blot as described below.

[3] = target: T2, topoisomerase II alpha (Homo sapiens, UniProt P11388); assay: as above; assay type: binding; parameters: endogenous in cells; host or cells: HL-60 nuclear extract; conditions: for competition of the interaction of biotinylated purine analogue 2 with topoisomerase II alpha: 1 μM biotinylated analogue 2, competitor in excess (10 μM), QAP 1 also at equimolar concentration
T2 sequence (P11388 whole entry): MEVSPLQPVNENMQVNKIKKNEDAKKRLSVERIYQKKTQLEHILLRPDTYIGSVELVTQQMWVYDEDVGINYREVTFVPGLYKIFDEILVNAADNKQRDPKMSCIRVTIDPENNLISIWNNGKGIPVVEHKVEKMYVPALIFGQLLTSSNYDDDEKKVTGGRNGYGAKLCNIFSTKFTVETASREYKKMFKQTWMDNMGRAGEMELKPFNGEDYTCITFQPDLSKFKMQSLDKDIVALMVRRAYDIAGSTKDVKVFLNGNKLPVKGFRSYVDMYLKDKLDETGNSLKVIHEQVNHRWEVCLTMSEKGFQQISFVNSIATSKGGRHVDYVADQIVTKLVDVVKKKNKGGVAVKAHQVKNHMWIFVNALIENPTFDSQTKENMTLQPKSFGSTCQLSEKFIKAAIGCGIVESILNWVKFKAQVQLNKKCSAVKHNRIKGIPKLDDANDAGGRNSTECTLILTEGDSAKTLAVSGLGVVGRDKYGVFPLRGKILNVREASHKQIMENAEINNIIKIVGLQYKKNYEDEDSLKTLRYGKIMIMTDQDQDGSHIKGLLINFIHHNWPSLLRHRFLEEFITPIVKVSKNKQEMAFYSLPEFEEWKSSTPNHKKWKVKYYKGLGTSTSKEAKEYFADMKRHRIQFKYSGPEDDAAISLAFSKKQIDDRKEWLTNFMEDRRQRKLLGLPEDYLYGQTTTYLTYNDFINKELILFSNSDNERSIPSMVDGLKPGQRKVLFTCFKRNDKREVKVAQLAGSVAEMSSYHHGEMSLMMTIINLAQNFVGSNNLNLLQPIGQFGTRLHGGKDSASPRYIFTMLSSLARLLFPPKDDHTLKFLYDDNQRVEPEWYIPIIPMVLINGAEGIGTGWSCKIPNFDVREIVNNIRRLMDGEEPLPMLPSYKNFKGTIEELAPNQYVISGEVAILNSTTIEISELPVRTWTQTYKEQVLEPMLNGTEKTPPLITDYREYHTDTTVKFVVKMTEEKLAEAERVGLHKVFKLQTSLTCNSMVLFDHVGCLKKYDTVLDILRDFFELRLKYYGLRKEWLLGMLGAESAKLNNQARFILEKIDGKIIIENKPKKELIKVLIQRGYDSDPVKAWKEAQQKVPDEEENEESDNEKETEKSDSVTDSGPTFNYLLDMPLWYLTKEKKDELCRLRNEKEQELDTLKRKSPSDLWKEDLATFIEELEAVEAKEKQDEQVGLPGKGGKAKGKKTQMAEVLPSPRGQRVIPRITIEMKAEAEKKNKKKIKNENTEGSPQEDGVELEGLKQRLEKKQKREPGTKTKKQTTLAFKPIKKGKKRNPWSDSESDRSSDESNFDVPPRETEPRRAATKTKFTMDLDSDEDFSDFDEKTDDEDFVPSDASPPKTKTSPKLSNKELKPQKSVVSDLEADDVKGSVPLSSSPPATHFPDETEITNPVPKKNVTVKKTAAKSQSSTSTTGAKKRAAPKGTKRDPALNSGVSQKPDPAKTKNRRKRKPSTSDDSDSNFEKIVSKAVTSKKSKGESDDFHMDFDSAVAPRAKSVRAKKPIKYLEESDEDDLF
Method: as §1

[4] = target: T2, topoisomerase II alpha; assay: DNA-dependent ATPase assay (malachite green); assay type: biochemical; parameters: screened in an ATPase assay using purified full length tagged human topoisomerase II alpha; made in house; host or cells: Sf21 insect cells, baculovirus (pFastBac1)
Method: DNA-dependent ATP hydrolysis of human topoisomerase II α was monitored by measuring the production of inorganic phosphate using acidic molybdate and malachite green. Specific ATPase activity of every batch was tested in a time-course to determine optimal incubation times and enzyme concentrations within the linear range of the assay. Reactions thus contained 10 – 40 nM topoisomerase II (dimer concentration) in reaction buffer (10 mM Tris HCl pH 7.5, 175 mM KCl, 0.1 mM EDTA, 5 mM MgCl2, 2 mM DTT, 2.5% glycerol and 1.7 nM supercoiled pUC18). The specific activity of the human topoisomerase II α enzyme measured in the ATPase assay was 0.24 μmol PO4·min^-1·mg^-1. […] Compounds at the indicated concentrations were added as serial dilutions prepared in DMSO and preincubated for 10 minutes at 37°C on an orbital shaker. Reactions were started by the addition of 400 μM ATP (Sigma, catalog number A2383) and allowed to proceed for 30 minutes. Reactions were terminated by the addition of 200 μl malachite green reagent and the OD was read immediately at 630 nm on a SpectraMax Plus microtiter plate reader using SoftMax Pro software (Molecular Devices). For kinetic analysis, reactions were carried out in duplicate as described above either in the presence of vehicle (DMSO) or QAP 1. Following a preincubation for 5 minutes, ATP was added at the indicated concentrations to start the reactions, which were allowed to proceed for 17 minutes before stopping and reading as above. From these values the OD values obtained at each respective ATP concentration without enzyme were subtracted for background correction. […] A compromise was found by carrying out the competition experiments with a single concentration of the inhibitor that gave a good inhibition of enzyme activity while keeping a measurable signal. The equations used to fit these experiments are: […]
Each competition experiment was fitted (Grafit version 5.04 – Erithacus Software) with these 3 equations and the models that gave unrealistic inhibition constants (above 10 mM) and/or large standard errors (similar to the value of the fitted parameter) were rejected. Then, the F-test was carried out to identify the best fitting model. An alternative method was used to determine the mode of action of the inhibitor. Dose-response experiments were carried out at different ATP concentrations and the corresponding IC50s determined. According to the Cheng-Prusoff equation for linear competitive inhibition: […]
The IC50 of a competitive inhibitive inhibitor should increase in a linear fashion with the concentration of ATP. The measured IC50s were then plotted in function of the ATP concentrations and linear regression analyses were carried out. […] Mean Km and Vmax values were calculated from two independent experiments.

[5] = 1 μM biotinylated compound, HL-60 nuclear extracts

Structure (SMILES): C=CCNC1=C2C[C@@H](C)C[C@H](OC)[C@H](O)[C@@H](C)/C=C(\C)[C@H](OC(N)=O)[C@@H](OC)/C=C\C=C(/C)C(=O)NC(=CC1=O)C2=O [17-AAG, reference compound]
- sensitivity of BRCA1 mutant versus BRCA1 reconstituted HCC1937 cells [1]: to a similar extent

Structure (SMILES): CCc1nc2c(NC(C)(C)C)nc(Nc3ccc4nc(OCCN5CCN(C(=O)CCOCCOCCOCCNC(=O)CCCC[C@@H]6SC[C@@H]7NC(=O)N[C@@H]76)CC5)sc4c3)nc2[nH]1 [purine analogue 2]
- pull down of topoisomerase II beta by biotinylated compound [2, 5]: pull down
- pull down of topoisomerase II alpha by biotinylated compound [3, 5]: pull down

Structure (SMILES): CCc1nc2c(NC(C)(C)C)nc(Nc3ccc4ncsc4c3)nc2[nH]1 [purine analogue 3]
- IC50 ([4]; full length tagged human topoisomerase II alpha, 400 μM ATP): 0.432 ± 0.03 µM
- competition of the interaction of biotinylated purine analogue 2 with topoisomerase II beta [2]: lost
- competition of the interaction of biotinylated purine analogue 2 with topoisomerase II alpha [3]: lost

Structure (SMILES): CCc1nc2c(N3CCSCC3)nc(Nc3ccc4ncsc4c3)nc2[nH]1 [purine analogue 4]
- activity in the ATPase assays ([4]; result in words): inactive
- competition of the interaction of biotinylated purine analogue 2 with topoisomerase II beta [2]: not
- competition of the interaction of biotinylated purine analogue 2 with topoisomerase II alpha [3]: not
